Measurements from PubChem BioAssay AID652107 (NMMLSC, 2013).

System: human granulocytes, fMLF-stimulated F-actin, FITC-phalloidin flow
Assay: actin polymerization inhibitors in human granulocytes – cell-based, primary human granulocytes, FITC-phalloidin flow cytometry, mechanism study for Cdc42 probe extension project (AID 652107)
Conditions: at 10 µM; active compounds read high

COc1ccc(C2CC(c3ccccc3)=NN2c2ccc(S(N)(=O)=O)cc2)cc1 (stereo unspecified) was tested, and the inhibition was 10%.
